Test results as given in patent EP0139358B1, “N6-substituted diarylalkyl adenosines, processes for their production and pharmaceutical compositions comprising the same” (priority 1983, dated 1985).
Read-outs that look alike come from different tables or passages of the source.

Assays:
[1] = tested on: Swiss-Webster male mice; assay: Mouse Activity and Screen Test (MAST): screen test (ST); format: in vivo; conditions: lowest dose at which an A rating (60-100%) is achieved, screen test; intraperitoneally
Method: (§1) Treatments are administered intraperitoneally one hour prior to testing. […] Compounds are dissolved or suspended in 0.2% Methocel. Control animals are injected with Methocel.
The compounds are identified in the Examples.

[2] = tested on: conscious rat; assay: Antihypertensive evaluation (AHP3): aortic blood pressure and heart rate; format: in vivo; conditions: lowest dose tested at which a >10% reduction in blood pressure for four consecutive hours is achieved; conscious rat; read-out: AHP3 BP LAD
Text: […] EVALUATION (AHP3)
This test procedure is described in the following paragraphs.
A Method for the Direct Monitoring of Aortic Blood Pressure and Heart Rate from Conscious Rats
The continuous monitoring of pulsatile blood pressure (BP) from unrestrained conscious rats surgically equipped with polyethylene cannulas was accomplished by means of a computer assisted data capture scheme (CADCS). The absic elements of the methodology are the cannulation procedure and the CADCS.
Cannulation Procedure: Rats were anesthetized with Telazol (1:1 tiletamine HCI and zolazepam HCI); 20-40 mg/kg IM and the descending aorta exposed via a midline incision. Cannulas fabricated from polyethylene tubing were inserted into the aorta via an undersized puncture hole below the renal arteries. The puncture hole was made by a 23 G disposable needle with a section of the aorta clamped off above and below the puncture site. The cannulas, consisting of a PE100 (0.86 mm ID) body and a PE50 (0.58 mm ID) tip, were attached to a trocar, inserted through the psoas muscle, and passed subcutaneously along the midline of the back and externalized between the ears. The cannulas were anchored to the psoas muscle and between the scalulae (3-0 green braided suture). The midline incision was closed in two steps (muscle first, skin second) using continuous over-and over sutures (4-0 chronic). Each rat was then given penicillin 30,000 units subcutaneously (Penicillin G Procaine Sterile Suspension).
The rats were fitted with a harness-spring-swivel assembly designed to protect the cannula and to provide the rat relative freedom of movement. The harnesses were fabricated from nylon hook and loop tape cemented to a metal plate to which spring wires (18-8 stainless steel), were attached to brass swivels. Each polyethylene cannula was channeled through a spring and connected through a swivel to a pressure transducer (Model P23Gb; Statham Instruments; Hato Rey, Puerto Rico) and an infusion pump (Sage model 234-7; Orion Research, Cambridge, Ma) by means of PE100 tubing. While on test, each rat received a continuous slow infusion of heparinized saline solution (approximately 400 I or 40 units of heparin per 24 hour period) to prevent clot formation. Additional "flushes" of the cannula with heparinized saline were carried out when the aortic pulse pressure (systolic minus diastolic) was less than 25 mm Hg.
CADCS: The pulsatile blood pressure and heart rate of each of 32 rats was monitored every minute by means of two in-laboratory microcomputers communicating directly with a data concentrator computer. The data were first stored on the data concentrator disk and then transferred to a magnetic tape for analysis and report generation by the main research computer. The overall scheme involved modulating the primary signal from the pressure transducer, generating the primary data set of the one-minute values for systolic, diastolic, and mean blood pressures and heart rate by the in-lab microcomputer and the storage, analysis, and report generation by the main research computer.
The transducers were connected to analog signal conditioning modules. The modules providing a regulated excitation voltage for the transducers, amplification as required to interface the microprocessors and an active low pass filter to compensate for the pressure wave form distortion produced by the flexible, fluid filled, narrow cannula.
The microcomputers (one for each of two groups of 16 rats) were connected to the input components through the module interface units, an analog-to-digital converter for the pressure wave form signal and the digital inputs for the dose and event marker switches. The microcomputer controlled the sequential acquisition of data from the modular interface units through an internal synchronous time-of-day clock/ time base generator. […]

[3] = tested on: Swiss-Webster male mice; assay: Mouse Activity and Screen Test (MAST): inhibition of spontaneous locomotion (LI); format: in vivo; conditions: Mus musculus, ip; read-out: MAST LI LAD
Method: as §1
Immediately following the screen test, the final phase of testing is initiated by placing each group of three mice in one actophotometer (Life Sciences, 22, 1067-1076, 1978). The actophotometer consists of a cylindrical chamber whose center is occupied by another cylinder which contains the illumination for six photocells located on the perimeter of the chamber. Six light-beam interruptions equal one count. Locomotor activity is recorded by computer at ten minute intervals for 60 minutes. […]

[4] = tested on: male Swiss-Webster mice; assay: Analgesic evaluation: antiwrithing (AW) test, acetic acid; format: in vivo; conditions: Mus musculus, sc; subcutaneously, 20 minutes before acetic acid; dose to suppress writhing by 50%; read-out: AW ED50
Method: The antiwrithing (AW) test provides preliminary assessment of compounds with potential analgesic activity. The test is performed in male Swiss-Webster mice. Compounds are administered subcutaneously in aqueous 0.2% methylcellulose or other appropriate vehicles in volumes of 10 ml/kg. Dosages represent activity moiety.
Acetic acid (0.6%, 10 ml/kg) is injected intraperitroneally 20 minutes after administration of the adenosine agonist. Writhing movements are counted for five minutes starting seven minutes after the acetic acid injection. Writhing is defined as abdominal constriction and stretching of the body and hind legs with concave arching of the back. […] EDso values are calculated by nonlinear regression analysis.

[5] = tested on: Long-Evans rats or squirrel-monkeys; assay: Antipsychotic lever-push shock avoidance protocol (SIDR); format: in vivo; conditions: Rattus norvegicus; shock avoidance lever pushing; read-out: SIDR ED50
Method: Representative compounds of the invention (identified in the Examples) were also tested for antipsychotic activity according to the following protocol (SIDR). […] Mature male Long-Evans rats or squirrel-monkeys are conditioned to push a lever in order to avoid a painful electric footshock. If the animal fails to push the lever, he receives a shock every ten seconds until the lever is pushed. Shocks can be terminated by pushing the lever. Thereafter, as long as the lever is pushed at least once every 20 seconds, there will be no shock. Each animal acts as its own control; one weekly session is used to establish baseline behavior and another session later in the week is used as a drug session. Once patterns of avoidance are established, the effects of standard and unknown compounds are studied. All events are electronically programmed and the response to these events counted or used as feedback to the program.

[6] = tested on: rat heart; assay: Coronary blood flow (PCS2A): isolated perfused heart; conditions: isolated perfused rat heart
Method: CORONARY BLOOD FLOW (PCS2A)
Male rats (400-600 gms) are pretreated with Na haparin 2000 units and anesthetized with Na pentobarbital (50 mg/kg) administered intraperitoneally. Once anesthetized, the rat heart is rapidly excised, the ascending aorta fitted to the aortic perfusion cannula, and […] with a ligature. The coronary arteries are perfused initially at a rate of about 15 ml/min for two to three minutes, afterwhich they are perfused at constant pressure of 70 mm Hg and temperature of 37°C. The electrocardiogram (ECG) is recorded using two platinum electrodes positioned at the base and apex of the left ventricle. A second heart is excised, cannulated, and perfused by the same method outlined above. Both hearts are tested in parallel. The standard physiological salt solution (PSS) is a modified Krebs-Hanseleit bicarbonate buffer of the following composition in mM concentration: NaCI, 127; NaHC03, 25; dextrose, 5.5; Na Pyruvate, 2.0: KCI, 4.7; MgS04, 1.1; KH 2P04, 1.2; CaCl2·2H2O, 2.5; CaNa2 EDTA, 0.05.
A 30-minute stabilization period is observed before starting the test protocol.
The microprocessor control system is a servo mechanism which permits coronary perfusion pressure (CPP) and drug concentration to be maintained constant independent of changes in coronary flow. The level at which CPP and drug concentration are maintained can be changed by commands communicated through the microprocessor keyboard. Dose-response curves are carried out by perfusing concentrated drug solution (DC) at rates proportional to total coronary flow (CFT). Drug concentrations are increased by proportionate increases in the rate of DC infusion over CFT via the microprocessor keyboard. The proportional flow rates for DC:CFT is about .0002:1 at the low end and .02: at the high end of the dose-response curve. Dose-response curves encompassing at least two log doses are carried out by preparing two DCs with a concentration difference of 1:100. Following the first dose range of two log doses, the DC are switched, proportional pumping rate adjusted, and the dose-response curve continued for another two log doses. The standard dose-response curve is carried out in one-half log dose increments starting at a subthreshold dose and ending at a dose which produces near maximal response in activity. Standard reference compounds are tested over the range of 10-^9 to 10-^6M.
Measurements are for heart rate (HR) and coronary flow (CF). Units are: HR, beats/minute (bpm) and CF, milliliters/minute (ml/min). HR is calculated from the ECG strip chart recording and CF is calculated by recording analog outputs from pumps 1 and 2. Outputs from pump #1 = CFT and the output from pump #2 = CF for heart B (CFg). CF for heart A (CFA) is calculated (CFT - CFB = CFA).
Using the above technique, the effects of the compound of Examples 1 and 2 are as follows: […]

[7] = coronary flow, read-out: PCS2A CF ED50
[8] = heart rate, read-out: PCS2A HR ED50

| MAST ST LAD [1] [mg/kg] | EC50 [6, 7] [nM] | Compound | minimal effective dose [2] [mg/kg] | minimal effective dose [3] [mg/kg] | ED50 [4] [mg/kg] | ED50 [5] [mg/kg] | EC50 [6, 8] [nM] |
| --- | --- | --- | --- | --- | --- | --- | --- |
| >100 | < 100 | CC(CNc1ncnc2c1ncn2[C@@H]1O[C@H](CO)[C@@H](O)[C@H]1O)(c1ccccc1)c1ccccc1 [Example 8, N^6-(2,2-Diphenylpropyl)adenosine] | 10 | 10 | 10.6 | 5.6 | 3000 |
| >100 | 30 | OC[C@H]1O[C@@H](n2cnc3c(NCC(c4ccccc4)c4ccc(Cl)cc4)ncnc32)[C@H](O)[C@@H]1O (stereo partly shown) [Example 15, N^6-(2-(4-Chlorophenyl)-2-phenylethyl)adenosine] | 10 | 10 | – | 12.7 | > 3000 |
| >100 | 1000 | CC(=O)OC[C@H]1O[C@@H](n2cnc3c(NCC(c4ccccc4)c4ccccc4)ncnc32)[C@H](OC(C)=O)[C@@H]1OC(C)=O [Example 25, 2',3',5'-Tri-O-acetyl-N^6-(2,2-diphenylethyl)adenosine] | 10 | 3 | – | 11.3 | 2200 |
